{"source": "paper PMC11951083", "about": "“Highly Specific Miniaturized Fluorescent Monoacylglycerol Lipase Probes Enable Translational Research” (Journal of the American Chemical Society, 2025)", "key": {"MAGL-Nluc fusion protein": {"test_system": "MAGL-Nluc fusion protein", "experiment": "Competition nanoBRET assay in live HEK293 cells with probe 4a as tracer", "type": "cell-based", "conditions": "tracer 4a (100 nM), read-out: cellular IC50", "description": "In vitro MAGL Inhibition Assay\nCompounds were profiled for MAGL inhibitory activity by determining the enzymatic activity by following the hydrolysis of the natural substrate 2-arachidonoylglycerol (2-AG), resulting in arachidonic acid, which can be followed by mass spectrometry. The 2-AG assay was carried out in 384 well assay plates (PP, Greiner Cat# 784201) in a total volume of 20 µL. Compound dilutions were made in 100% DMSO (VWR Chemicals 23500.297) in a polypropylene plate in 3-fold dilution steps to give a final concentration range in the assay from 12.5 µM to 0.8 pM. […] The activity of the compounds was calculated based on the ratio of intensities [arachidonic acid / d8-arachidonic acid]. […]\nA HEK293A stable cell line expressing NanoLuc_MAGL was established at Roche and assigned as HEK293A_NanoLuc_MAGL clone #43. […] The introduction of competing compounds results in a dose -dependent decrease in NanoBRET™ energy transfer, which allows quantification of the intracellular affinity of the target protein for the test compound.\nHEK293A_NanoLuc_MAGL clone #43 cells were cultured in DMEM (Gibco 31966) with 10% FBS and 800 ug/ml G418. […] After 2 hours of incubation, Nanoluciferase substrates and extracellular inhibitors were added following the manufacturer's protocol (Promega, #N2520), and the NanoBRET signaling were quantified with the Paradigm (Molecular Devices)."}, "MAGL [1]": {"target": "T1, MAGL (Homo sapiens, UniProt Q99685)", "T1 sequence (Q99685 1-303)": "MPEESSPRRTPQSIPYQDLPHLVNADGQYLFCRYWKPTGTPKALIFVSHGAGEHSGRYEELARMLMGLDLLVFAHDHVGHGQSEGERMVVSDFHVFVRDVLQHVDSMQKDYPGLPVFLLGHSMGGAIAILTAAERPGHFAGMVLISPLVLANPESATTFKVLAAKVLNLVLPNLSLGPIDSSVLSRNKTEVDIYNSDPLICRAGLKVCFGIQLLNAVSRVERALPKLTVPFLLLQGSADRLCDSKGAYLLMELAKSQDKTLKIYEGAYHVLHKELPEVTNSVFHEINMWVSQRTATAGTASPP", "experiment": "Competitive FP binding assay with probe 5 as tracer", "conditions": "5 (20 nM), hMAGL (50 nM), irreversible inhibitors time-dependent"}, "MAGL [2]": {"target": "T1, MAGL", "design": "method as in earlier work", "conditions": "Table S2, literature compounds; ref (1), (6)-(12) as indicated per compound; cited from earlier work"}, "MAGL [3]": {"target": "T1, MAGL", "experiment": "ABPP target occupancy in patient-derived PBMCs", "type": "cell-based", "design": "native, human patient-derived peripheral blood monocytes (PBMCs); endogenous in cells; host or cells: human PBMCs from buffy coats", "description": "minutes at RT. Subsequently, 0.5 µL MB064 (40x stock in DMSO) was added to the proteome sample, vortexed briefly, and incubated for 10 minutes at RT, after which 0.5 µL FP-Bodipy-FL (40x stock in DMSO) was added, vortexed briefly and incubated for 10 minutes at RT. The final volume was 20 - 20.5 µL (5 - 7.5% DMSO). The reaction was quenched by the addition of 7.5 µL of 4*Laemmli-buffer (final concentrations: 60 mM Tris (pH 6.8), 2% (w/v) SDS, 10% (v/v) glycerol, 1.25% (v/v) β-mercaptoethanol, 0.01% (v/v) bromophenol blue). 10 µL (14 µg protein) of the quenched reaction mixture was resolved on 10% acrylamide SDS-PAGE (180 V, 75 min). Fluorescence was measured using a Biorad ChemiDoc MP system (fluorescence channels Cy2, Cy3, Cy5). Gels were then stained using coomassie staining and imaged for protein loading control. Labeling of the respective proteins via MB064 and FP-BODIPY was visualized in two separate channels. […]\nPBMCs were thawed, washed with 1 x PBS and equal amounts of cells were exposed to DMSO (D2650; Sigma-Aldrich) or MAGL inhibitor PF (PF-06795071) in DMSO for 30 min at room temperature with concentrations ranging from 1 nM to 1000 nM. […] Samples were then separated by SDS-PAGE and bands were detected ChemiDoc Imager (Bio-Rad Laboratories). […] Gels were imaged and protein bands were quantified using Image Lab software (Bio-Rad Laboratories)."}}}
{"smiles": "O=C(O[C@H](CO)C(F)(F)F)N1C[C@@H]2C(c3ccn(-c4ccc(F)cc4)n3)[C@@H]2C1", "note": "(some centres unmarked) [PF-06795071]", "values": [{"measurement": "IC50", "setting": "MAGL-Nluc fusion protein", "result": 1600, "unit": "nM"}, {"measurement": "Ki", "setting": "MAGL [1]", "result": "12.8 ± 3.9", "unit": "nM"}, {"measurement": "IC50", "setting": "MAGL [2]", "result": 3, "unit": "nM"}, {"measurement": "loss of MAGL activity", "setting": "MAGL [3]; 1 nM", "result": 40, "unit": "%"}, {"measurement": "loss of MAGL activity", "setting": "MAGL [3]; 10 nM", "result": 93, "unit": "%"}]}
